Common to all, as to assay: PTP IC50 assay, pNPP or FDP as substrate
What all share (assay type): biochemical

One experiment addresses T1, PTP EPSILON (Homo sapiens, UniProt P23469).
T1 construct: made in house; host or cells: Sf-9 insect cells (pFastBac-G2T); a pGEX 6P-1 construct also existed
The settings on record: pNPP or FDP as substrate, 25° C.; read-out: PTP IC50 Epilson. The method, then: (§1) The following in vitro assay procedure is preferred to determine the level of activity and effect of the different compounds of the present invention on one or more of the PTPs. Similar assays can be designed along the same lines for any PTP using techniques well known in the art.
(§2) The catalytic assays described herein are performed in a 96-well format. The general procedure begins with the determination of PTP optimal pH using a three-component buffer system that minimizes ionic strength variations across a wide range of buffer pH. Next, the Michaelis-Menten constant, or Km, is determined for each specific substrate-PTP system. This Km value is subsequently used as the substrate reaction concentration for compound screening. Finally, the test PTP is exposed to varying concentrations of compound for fifteen minutes and allowed to react with substrate for ten minutes. The results are plotted as percent inhibition versus compound concentration and the IC50 interpolated from the plot.
(§3) All assays were performed using pNPP or FDP as substrate. The optimum pH was determined for each PTP used.
(§4) PTPase activity was assayed at 25° C. in a 100-μl reaction mixture containing an appropriate concentration of pNPP or FDP as substrate. The reaction was initiated by addition of the PTP and quenched after 10 min by addition of 50 μl of IN NaOH. The non-enzymatic hydrolysis of the substrate was corrected by measuring the control without the addition of the enzyme. The amount of p-nitrophenol produced was determined from the absorbance at 410 nm. To determine the kinetic parameter, Km, the initial velocities were measured at various substrate concentrations and the data were fitted to the Michaelis equation where velocity=(Vmax*[S])/(Km+[S]), and [S]=substrate reaction concentration.
(§5) The effect of the compounds on PTP was evaluated at 25° C. using pNPP or FDP as substrate. PTP was pre-incubated for fifteen minutes with various concentrations of compound. Substrate was then added at a fixed concentration (usually equal to the Km previously calculated). After 10 minutes, NaOH was added to stop the reaction. The hydrolysis of pNPP was followed at 410 nm on the Biotek Powerwave 200 microplate scanning spectrophotometer. The percent inhibition was calculated as follows: Percent Inhibition=[(control signal−compound signal)/control signal] ×100%. The IC50 was then determined by interpolation of a percent inhibition versus compound concentration plot.
(§6) Plasmids designed for bacterial GST-PTP fusion protein expression were derived by insertion of PCR-generated human PTP fragments into pGEX vectors (Pharmacia Biotech). Several of these constructs were then used to subclone phosphatases into pFastBac-1for expression in Sf-9 insect cells. Oligonucleotides used for the initial amplification of PTP genes are shown below. The cDNAs were prepared using the Gilbo BRL superscript preamplification system on RNAs purchased from Clontech.
The PTPepsilon cDNA was amplified from human placenta single-strand cDNA (Clontech RNA) using the following oligonucleotides: 5′oligo: 5′-[…]-3′ (SEQ ID NO: 6) 3′oligo: 5′-[…]-3′ (SEQ ID NO: 7) After cloning this PCR product into the Bam HI/Xho I sites of pGEX 6P-1, this phosphatase was subcloned using the same restriction sites in pFastBac-G2T.

The next experiment has as its target T2, PTP MEG2 (Homo sapiens, UniProt P43378).
T2 construct: made in house; host or cells: E. coli BL-21 (pGEX 6P-1)
T2 sequence (P43378 262-593 limits assumed): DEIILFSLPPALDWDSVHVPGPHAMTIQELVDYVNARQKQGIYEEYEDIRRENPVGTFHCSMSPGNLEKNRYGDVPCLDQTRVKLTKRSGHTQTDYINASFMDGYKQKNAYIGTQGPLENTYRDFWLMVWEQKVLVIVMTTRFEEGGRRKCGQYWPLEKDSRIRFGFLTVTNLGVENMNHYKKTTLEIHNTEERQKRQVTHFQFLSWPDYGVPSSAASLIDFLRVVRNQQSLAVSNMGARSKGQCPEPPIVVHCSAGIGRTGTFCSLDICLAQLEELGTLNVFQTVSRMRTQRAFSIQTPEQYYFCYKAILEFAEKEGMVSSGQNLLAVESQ
The settings on record: pNPP or FDP as substrate, 25° C.; read-out: PTP IC50 MEG2. The method, then: as §1, §2, §3, §4, §5, §6
The PTP MEG2 cDNA was amplified from human placenta single strand cDNA (Clontech RNA) using the following oligonucleotides: 5′oligo: 5′-[…]-3′ (SEQ ID NO: 8) 3′oligo: 5′-[…]-3′ (SEQ ID NO: 9) and subsequently ligated into pGex 6P-1 Eco RI/Xho I sites.

The next experiment addresses T3, PTP SIGMA (Homo sapiens, UniProt Q13332).
T3 construct: made in house; host or cells: E. coli BL-21 (pGEX 6P-1)
T3 sequence (Q13332 1320-1660 limits assumed): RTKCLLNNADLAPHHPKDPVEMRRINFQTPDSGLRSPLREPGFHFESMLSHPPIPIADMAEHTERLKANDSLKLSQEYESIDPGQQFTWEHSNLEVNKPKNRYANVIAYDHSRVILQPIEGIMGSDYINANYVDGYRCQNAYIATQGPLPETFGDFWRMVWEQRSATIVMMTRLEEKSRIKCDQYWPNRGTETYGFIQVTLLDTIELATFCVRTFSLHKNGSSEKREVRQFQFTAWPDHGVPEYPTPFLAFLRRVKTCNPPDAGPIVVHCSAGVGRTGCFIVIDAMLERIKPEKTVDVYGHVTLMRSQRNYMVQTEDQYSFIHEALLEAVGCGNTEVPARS
The settings on record: pNPP or FDP as substrate, 25° C.; read-out: PTP IC50 Sigma. Here is the method: as §1, §2, §3, §4, §5, §6
The PTP Sigma cDNA was amplified from human brain single strand cDNA (Clontech RNA) using the following oligonucleotides: 5′oligo: 5′-[…]-3′ (SEQ ID NO: 12) 3′oligo: 5′-[…]-3′ (SEQ ID NO: 13) and subsequently ligated into pGex 6P-1 Eco RI/Xho I sites.

A further experiment deals with T4, PTP BETA (Homo sapiens, UniProt P23467).
T4 construct: The catalytic domain was amplified using the following oligonucleotides; made in house; host or cells: E. coli BL-21 (pGEX 6P-1)
Conditions: pNPP or FDP as substrate, 25° C.; read-out: PTP IC50 Beta. Here is the method:
as §1, §2, §3, §4, §5, §6
The PTP Beta cDNA used has been described earlier (Levy et al., 1993, J. Biol. Chem, 268:10573-10581). The catalytic domain was amplified using the following oligonucleotides: 5′oligo: 5′-[…]-3′ (SEQ ID NO: 16) 3′oligo: 5′-[…]-3′ (SEQ ID NO: 17) and subsequently cloned into the Eco RI/Xho I sites of pGEX 6P-1.

The results in this text go back to US6596772B1, “Phosphate mimics and methods of treatment using phosphatase inhibitors” (Sugen, Inc., priority 1999, dated 2003).

A value given as a limit tells only on which side of the number the result lay.

As a reminder, the IC50 is the concentration at which inhibition is half-maximal.

T4 sequence (P23467 1653-1997): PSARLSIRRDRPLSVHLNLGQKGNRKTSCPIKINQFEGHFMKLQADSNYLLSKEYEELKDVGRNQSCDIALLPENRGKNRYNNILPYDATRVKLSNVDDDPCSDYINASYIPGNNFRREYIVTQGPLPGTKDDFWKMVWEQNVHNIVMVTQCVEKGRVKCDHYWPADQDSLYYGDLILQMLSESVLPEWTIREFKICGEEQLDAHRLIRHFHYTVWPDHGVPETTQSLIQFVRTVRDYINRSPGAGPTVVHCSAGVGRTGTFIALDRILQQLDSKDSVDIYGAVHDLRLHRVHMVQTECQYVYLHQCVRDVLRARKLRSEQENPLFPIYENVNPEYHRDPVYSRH
T1 sequence (P23469 80-393 limits assumed): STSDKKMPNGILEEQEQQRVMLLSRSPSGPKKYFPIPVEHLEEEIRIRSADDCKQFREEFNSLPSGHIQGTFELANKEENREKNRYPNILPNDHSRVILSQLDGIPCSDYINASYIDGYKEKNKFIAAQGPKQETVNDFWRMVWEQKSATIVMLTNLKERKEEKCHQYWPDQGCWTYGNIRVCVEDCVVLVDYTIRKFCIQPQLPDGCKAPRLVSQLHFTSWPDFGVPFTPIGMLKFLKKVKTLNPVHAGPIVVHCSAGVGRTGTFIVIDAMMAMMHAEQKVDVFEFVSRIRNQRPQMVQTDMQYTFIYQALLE

Consider `O=C(O)c1ccc(Oc2cccc(Oc3ccc(S(=O)(=O)C(F)(F)F)cc3[N+](=O)[O-])c2)cc1` [Example 15, 4-[3-(2-Nitro-4-trifluoromethanesulfonyl-phenoxy)-phenoxy]-benzoic acid], for which the IC50 was found to be 10 µM on PTP EPSILON, 21.1 µM on PTP MEG2, 11.7 µM on PTP SIGMA and 10.3 µM at PTP BETA.
For `COC(=O)c1cc(Oc2ccc(S(=O)(=O)C(F)(F)F)cc2[N+](=O)[O-])n(-c2cc(C(F)(F)F)cc(C(F)(F)F)c2)n1` [Example 16, 1-(3,5-Bis-trifluoromethyl-phenyl)-5-(2-nitro-4-trifluoromethanesulfonyl-phenoxy)-1H-pyrazole-3-carboxylic acid methyl ester], in that order: 64.7 µM, 79.5 µM, 29.4 µM and 9.6 µM.
For `CCOC(=O)COc1ccc(S(=O)(=O)c2ccc(Oc3ccc(S(=O)(=O)C(F)(F)F)cc3[N+](=O)[O-])cc2)cc1` [Example 17, {4-[4-(2-Nitro-4-trifluoromethanesulfonyl-phenoxy)-benzenesulfonyl]-phenoxy}-acetic acid ethyl ester], in that order: > 100 µM, 88.5 µM, > 100 µM and 26 µM.
The like results for `O=C(O)c1ccc(Oc2cccc(Oc3ccc(S(=O)(=O)C(F)(F)F)cc3)c2)cc1` [Example 18, 4-[3-(4-Trifluoromethanesulfonyl-phenoxy)-phenoxy]-benzoic acid] were, in that order, 0.77 µM, 44 µM, 22.1 µM and 13.5 µM.
Turning to `CCOC(=O)COc1ccc(S(=O)(=O)c2ccc(Oc3ccc(S(=O)(=O)C(F)(F)F)cc3)cc2)cc1` [Example 19, {4-[4-(4-trifluoromethanesulfonyl-phenoxy)-benzenesulfonyl]-phenoxy}-acetic acid ethyl ester], the IC50 is 31.4 µM on PTP EPSILON, 52.2 µM at PTP MEG2, 93.3 µM at PTP SIGMA and 1.9 µM on PTP BETA.
For `O=C(Cc1ccccc1CC(=O)Nc1cccc(S(=O)(=O)C(F)(F)F)c1)Nc1cccc(S(=O)(=O)C(F)(F)F)c1` [Example 20, N-(3-Trifluoromethanesulfonyl-phenyl)-2-{2-[(3-trifluoromethanesulfonyl-phenylcarbamoyl)-methyl]-phenyl}-acetamide], in that order: 7.5 µM, > 100 µM, 22.9 µM and 8.7 µM.
The like results for `O=C(Cc1cccc(CC(=O)Nc2cccc(S(=O)(=O)C(F)(F)F)c2)c1)Nc1cccc(S(=O)(=O)C(F)(F)F)c1` [Example 21, N-(3-Trifluoromethanesulfonyl-phenyl)-2-{3-[(3-trifluoromethanesulfonyl-phenylcarbamoyl)-methyl]-phenyl}-acetamide] were, in that order, 57.8 µM, 49.4 µM, 21.1 µM and 3.1 µM.
`O=C(Cc1ccc(CC(=O)Nc2cccc(S(=O)(=O)C(F)(F)F)c2)cc1)Nc1cccc(S(=O)(=O)C(F)(F)F)c1` [Example 22, N-(3-Trifluoromethanesulfonyl-phenyl)-2-{4-[(3-trifluoromethanesulfonyl-phenylcarbamoyl)-methyl]-phenyl}-acetamide]: the IC50 came to 8.3 µM on PTP EPSILON, 27.5 µM at PTP MEG2, 7.8 µM on PTP SIGMA and 1.4 µM on PTP BETA.
The like results for `O=[N+]([O-])c1cc(S(=O)(=O)C(F)(F)F)ccc1Oc1cc(CN2CCOCC2)c(Oc2ccc(S(=O)(=O)C(F)(F)F)cc2[N+](=O)[O-])cc1CN1CCOCC1` [Example 23, 3,6-Bis-(morpholin-4-ylmethyl)-2,5-bis-(2-nitro-4-trifluoromethanesulfonyl-phenoxy)-benzene] were, in that order, 2.2 µM, > 100 µM, 8.5 µM and 1.1 µM.
For `CN(C)CC(COc1ccc(S(=O)(=O)C(F)(F)F)cc1[N+](=O)[O-])Oc1ccc(S(=O)(=O)C(F)(F)F)cc1[N+](=O)[O-]` (stereo not shown) [Example 24, [2,3-Bis-(2-nitro-4-trifluoromethanesulfonyl-phenoxy)-propyl]-dimethyl-amine], in that order: > 100 µM, > 100 µM, 53.5 µM and 5.1 µM.
For `CCNc1ccc(S(=O)(=O)C(F)(F)F)cc1NC(=O)Cc1ccc(S(C)(=O)=O)cc1` [Example 25, N-(2-Ethylamino-5-trifluoromethanesulfonyl-phenyl)-2-(4-methanesulfonyl-phenyl)-acetamide], in that order: 41.4 µM, 52.6 µM, > 71 µM and 0.35 µM.
For `CCOC(=O)c1cc(Oc2ccc(S(=O)(=O)C(F)(F)F)cc2[N+](=O)[O-])c(C(=O)OCC)cc1O` [Example 26, 2-Hydroxy-5-(2-nitro-4-trifluoromethanesulfonyl-phenoxy)-terephthalic acid diethyl ester], the half-inhibitory concentration (IC50) stood at 6.2 µM on PTP EPSILON, 90.8 µM at PTP MEG2, 69 µM on PTP SIGMA and 2.9 µM on PTP BETA.
The like results for `O=C(O)Cc1ccccc1CC(=O)Nc1cccc(S(=O)(=O)C(F)(F)F)c1` [Example 27, {2-[(3-Trifluoromethanesulfonyl-phenylcarbamoyl)-methyl]-phenyl}-acetic acid] were, in that order, 3.8 µM, > 100 µM, > 100 µM and 61.4 µM.
